Measured values taken from patent publication US7902373B2 (Pfizer Inc, priority 2006, dated 2011).

molecular target: human recombinant H-PGDS (Homo sapiens, UniProt O60760); experiment: Fluorescence intensity h-PGDS TBA enzyme assay; format: biochemical; details: Examples up to 622 (and 3a, 3b)
Sequence (O60760 whole entry): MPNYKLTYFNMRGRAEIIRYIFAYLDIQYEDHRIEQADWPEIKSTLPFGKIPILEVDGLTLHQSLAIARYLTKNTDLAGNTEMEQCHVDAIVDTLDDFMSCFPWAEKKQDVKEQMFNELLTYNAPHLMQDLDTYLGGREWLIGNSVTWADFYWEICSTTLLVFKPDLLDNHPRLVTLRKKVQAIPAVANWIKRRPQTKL

**Q.** With `O=C(NC1CCN(c2nncc3ccccc23)CC1)c1ccc(-c2cccc(F)c2)nc1` [Example 61, 6-(3-Fluorophenyl)-N-(1-phthalazin-1-ylpiperidin-4-yl)nicotinamide] as the molecule, how does the IC50 read?
**A.** The IC50 was 0.365 nM.

**Q.** Which IC50 does the source give for `Cn1ccnc1-c1nc(N2CCC(NC(=O)c3ccc(-c4cccc(F)c4)nc3)CC2)nc2ccccc12` [Example 62, 6-(3-Fluorophenyl)-N-{1-[4-(1-methyl-1H-imidazol-2-yl)quinazolin-2-yl]piperidin-4-yl}nicotinamide] here?
**A.** The IC50 was 3.33 nM.

**Q.** `O=C(NC1CCN(c2ncnc3ncccc23)CC1)c1ccc(-c2cccc(F)c2)nc1` [Example 63, 6-(3-Fluorophenyl)-N-(1-pyrido[2,3-d]pyrimidin-4-ylpiperidin-4-yl)nicotinamide] was tested. Which IC50 did it give?
**A.** The IC50 was 0.183 nM.

**Q.** `NC(=O)c1cccnc1N1CCC(NC(=O)c2ccc(-c3cccc(F)c3)nc2)CC1` [Example 64, N-{1-[3-(Aminocarbonyl)pyridin-2-yl]piperidin-4-yl}-6-(3-fluorophenyl)nicotinamide] was tested. Which IC50 did it give?
**A.** The IC50 was 0.246 nM.

**Q.** `O=C(NC1CCN(c2ncccc2Cl)CC1)c1ccc(-c2cccc(F)c2)nc1` [Example 65, N-[1-(3-Ahloropyridin-2-yl)piperidin-4-yl]-6-(3-fluorophenyl)nicotinamide] was tested. Which IC50 did it give?
**A.** Its IC50 is 0.354 nM.

**Q.** Which IC50 does the source give for `CCOC(=O)c1cccnc1N1CCC(NC(=O)c2ccc(-c3cccc(F)c3)nc2)CC1` [Example 66, Ethyl 2-[4-({[6-(3-fluorophenyl)pyridin-3-yl]carbonyl}amino)piperidin-1-yl]nicotinate] here?
**A.** The IC50 was 0.627 nM.

**Q.** `COc1ccnc(N2CCC(NC(=O)c3ccc(-c4cccc(F)c4)nc3)CC2)c1C#N` [Example 67, N-[1-(3-Cyano-4-methoxypyridin-2-yl)piperidin-4-yl]-6-(3-fluorophenyl)nicotinamide] was tested. Which IC50 did it give?
**A.** Its IC50 is 0.955 nM.

**Q.** `NC(=O)c1ccc(N2CCC(NC(=O)c3ccc(-c4cccc(F)c4)nc3)CC2)nc1` [Example 68, N-{1-[5-(Aminocarbonyl)pyridin-2-yl]piperidin-4-yl}-6-(3-fluorophenyl)nicotinamide] was tested. Which IC50 did it give?
**A.** Its IC50 is 0.361 nM.

**Q.** Which IC50 does the source give for `Cc1cc(C)c(C#N)c(N2CCC(NC(=O)c3ccc(-c4cccc(F)c4)nc3)CC2)n1` [Example 69, N-[1-(3-Cyano-46-dimethylpyridin-2-yl)piperidin-4-yl]-6-(3-fluorophenyl)nicotinamide] here?
**A.** Its IC50 is 1.21 nM.

**Q.** Which IC50 does the source give for `N#Cc1ccc(C(F)(F)F)nc1N1CCC(NC(=O)c2ccc(-c3cccc(F)c3)nc2)CC1` [Example 70, N-{1-[3-Cyano-6-(trifluoromethyl)pyridin-2-yl]piperidin-4-yl}-6-(3-fluorophenyl)nicotinamide] here?
**A.** Its IC50 is 3.26 nM.

**Q.** With `Cc1csc2c(N3CCC(NC(=O)c4ccc(-c5cccc(F)c5)nc4)CC3)ncnc12` [Example 71, 6-(3-Fluorophenyl)-N-[1-(7-methylthieno[3,2-d]pyrimidin-4-yl)piperidin-4-yl]nicotinamide] as the molecule, how does the IC50 read?
**A.** The IC50 was 2.18 nM.

**Q.** For `O=C(NC1CCN(c2ncccc2C(=O)NC2Cc3ccccc3C2)CC1)c1ccc(-c2cccc(F)c2)nc1` [Example 72, N-(2,3-Dihydro-1H-inden-2-yl)-2-[4-({[6-(3-fluorophenyl)pyridin-3-yl]carbonyl}amino)piperidin-1-yl]nicotinamide], which IC50 is on record?
**A.** The IC50 was 4.97 nM.

**Q.** Which IC50 does the source give for `COCc1cc(N2CCC(NC(=O)c3ccc(-c4cccc(F)c4)nc3)CC2)nc(-c2csc(C)n2)n1` [Example 73, 6-(3-Fluorophenyl)-N-{1-[6-(methoxymethyl)-2-(2-methyl-13-thiazol-4-yl)pyrimidin-4-yl]piperidin-4-yl}nicotinamide] here?
**A.** Its IC50 is 2.89 nM.

**Q.** How did the IC50 turn out when `O=C(NC1CCN(c2ncccc2C(=O)c2ccccn2)CC1)c1ccc(-c2cccc(F)c2)nc1` [Example 74, 6-(3-Fluorophenyl)-N-{1-[3-(pyridin-2-ylcarbonyl)pyridin-2-yl]piperidin-4-yl}nicotinamide] was run?
**A.** Its IC50 is 0.293 nM.

**Q.** For `O=C(NC1CCN(c2ncccc2C(=O)c2nccs2)CC1)c1ccc(-c2cccc(F)c2)nc1` [Example 75, 6-(3-Fluorophenyl)-N-{1-[3-(1,3-thiazol-2-ylcarbonyl)pyridin-2-yl]piperidin-4-yl}nicotinamide], which IC50 is on record?
**A.** Its IC50 is 0.314 nM.

**Q.** For `CC(=O)c1cc(C#N)c(N2CCC(NC(=O)c3ccc(-c4cccc(F)c4)nc3)CC2)nc1C` [Example 76, N-[1-(5-Acetyl-3-cyano-6-methylpyridin-2-yl)piperidin-4-yl]-6-(3-fluorophenyl)nicotinamide], which IC50 is on record?
**A.** The IC50 was 1.35 nM.

**Q.** For `N#Cc1ccccc1C(=O)c1cccnc1N1CCC(NC(=O)c2ccc(-c3cccc(F)c3)nc2)CC1` [Example 77, N-{1-[3-(2-Cyanobenzoyl)pyridin-2-yl]piperidin-4-yl}-6-(3-fluorophenyl)nicotinamide], which IC50 is on record?
**A.** The IC50 was 0.425 nM.

**Q.** With `COC(=O)c1cnc(N)nc1N1CCC(NC(=O)c2ccc(-c3cccc(F)c3)nc2)CC1` [Example 78, Methyl 2-amino-4-[4-({[6-(3-fluorophenyl)pyridin-3-yl]carbonyl}amino)piperidin-1-yl]pyrimidine-5-carboxylate] as the molecule, how does the IC50 read?
**A.** The IC50 was 0.148 nM.

**Q.** `O=C(NC1CCN(c2nccnc2Cc2ccccc2)CC1)c1ccc(-c2cccc(F)c2)nc1` [Example 79, N-[1-(3-Benzylpyrazin-2-yl)piperidin-4-yl]-6-(3-fluorophenyl)nicotinamide] was tested. Which IC50 did it give?
**A.** Its IC50 is 2.28 nM.

**Q.** `CNC(=O)c1ccc(N2CCC(NC(=O)c3ccc(-c4cccc(F)c4)nc3)CC2)nn1` [Example 80, 6-[4-({[6-(3-Fluorophenyl)pyridin-3-yl]carbonyl}amino)piperidin-1-yl]-N-methylpyridazine-3-carboxamide] was tested. Which IC50 did it give?
**A.** Its IC50 is 0.408 nM.

**Q.** Which IC50 does the source give for `CCN1CCCC1CNC(=O)c1ccc(N2CCC(NC(=O)c3ccc(-c4cccc(F)c4)nc3)CC2)nn1` (stereo not drawn) [Example 81, N-[(1-Ethylpyrrolidin-2-yl)methyl]-6-[4-({[6-(3-fluorophenyl)pyridin-3-yl]carbonyl}amino)piperidin-1-yl]pyridazine-3-carboxamide] here?
**A.** Its IC50 is 0.947 nM.

**Q.** Which IC50 does the source give for `CCCN(C)C(=O)c1ccc(N2CCC(NC(=O)c3ccc(-c4cccc(F)c4)nc3)CC2)nn1` [Example 82, 6-[4-({[6-(3-Fluorophenyl)pyridin-3-yl]carbonyl}amino)piperidin-1-yl]-N-methyl-N-propylpyridazine-3-carboxamide] here?
**A.** The IC50 was 1.05 nM.

**Q.** `CCNC(=O)c1ccc(N2CCC(NC(=O)c3ccc(-c4cccc(F)c4)nc3)CC2)nn1` [Example 83, N-Ethyl-6-[4-({[6-(3-fluorophenyl)pyridin-3-yl]carbonyl}amino)piperidin-1-yl]pyridazine-3-carboxamide] was tested. Which IC50 did it give?
**A.** The IC50 was 0.37 nM.

**Q.** With `O=C(NC1CCN(c2ccc(C(=O)NCCN3CCOCC3)nn2)CC1)c1ccc(-c2cccc(F)c2)nc1` [Example 84, 6-[4-({[6-(3-Fluorophenyl)pyridin-3-yl]carbonyl}amino)piperidin-1-yl]-N-(2-morpholin-4-ylethyl)pyridazine-3-carboxamide] as the molecule, how does the IC50 read?
**A.** The IC50 was 0.635 nM.

**Q.** How did the IC50 turn out when `O=C(NC1CCN(c2ccc(C(=O)Nc3ccon3)nn2)CC1)c1ccc(-c2cccc(F)c2)nc1` [Example 85, 6-[4-({[6-(3-Fluorophenyl)pyridin-3-yl]carbonyl}amino)piperidin-1-yl]-N-isoxazol-3-ylpyridazine-3-carboxamide] was run?
**A.** The IC50 was 0.72 nM.

**Q.** For `Cc1noc(NC(=O)c2ccc(N3CCC(NC(=O)c4ccc(-c5cccc(F)c5)nc4)CC3)nn2)c1C` [Example 86, N-(3,4-Dimethylisoxazol-5-yl)-6-[4-({[6-(3-fluorophenyl)pyridin-3-yl]carbonyl}amino)piperidin-1-yl]pyridazine-3-carboxamide], which IC50 is on record?
**A.** The IC50 was 0.876 nM.

**Q.** How did the IC50 turn out when `CCN1CCN(C(=O)c2ccc(N3CCC(NC(=O)c4ccc(-c5cccc(F)c5)nc4)CC3)nn2)CC1` [Example 87, N-(1-{6-[(4-Ethylpiperazin-1-yl)carbonyl]pyridazin-3-yl}piperidin-4-yl)-6-(3-fluorophenyl)nicotinamide] was run?
**A.** Its IC50 is 0.538 nM.

**Q.** For `Cc1nn(C)c(C)c1NC(=O)c1ccc(N2CCC(NC(=O)c3ccc(-c4cccc(F)c4)nc3)CC2)nn1` [Example 89, 6-[4-({[6-(3-Fluorophenyl)pyridin-3-yl]carbonyl}amino)piperidin-1-yl]-N-(1,3,5-trimethyl-1H-pyrazol-4-yl)pyridazine-3-carboxamide], which IC50 is on record?
**A.** Its IC50 is 0.365 nM.

**Q.** `CCC(CO)n1cnc2c(N3CCC(NC(=O)c4ccc(-c5cccc(F)c5)nc4)CC3)ncnc21` (stereo not drawn) [Example 90, 6-(3-Fluorophenyl)-N-(1-{9-[1-(hydroxymethyl)propyl]-9H-purin-6-yl}piperidin-4-yl)nicotinamide] was tested. Which IC50 did it give?
**A.** Its IC50 is 0.305 nM.

**Q.** With `COc1ccc2oc(N3CCC(NC(=O)c4ccc(-c5cccc(F)c5)nc4)CC3)nc2c1` [Example 91, 6-(3-Fluorophenyl)-N-[1-(5-methoxy-13-benzoxazol-2-yl)piperidin-4-yl]nicotinamide] as the molecule, how does the IC50 read?
**A.** The IC50 was 0.603 nM.

**Q.** Which IC50 does the source give for `O=C(NC1CCN(c2nnnn2-c2ccc3c(c2)CCC3)CC1)c1ccc(-c2cccc(F)c2)nc1` [Example 92, N-{1-[1-(2,3-Dihydro-1H-inden-5-yl)-1H-tetrazol 5-yl]piperidin-4-yl}-6-(3-fluorophenyl)nicotinamide] here?
**A.** Its IC50 is 5.15 nM.

**Q.** For `C=CCC(C)(C)c1nc2c(N3CCC(NC(=O)c4ccc(-c5cccc(F)c5)nc4)CC3)ncnc2n1C` [Example 93, N-{1-[8-(1,1-Dimethylbut-3-en-1-yl)-9-methyl-9H-purin-6-yl]piperidin-4-yl}-6-(3-fluorophenyl)nicotinamide], which IC50 is on record?
**A.** The IC50 was 17.9 nM.

**Q.** With `O=C(NC1CCN(c2nnnn2-c2ccccc2F)CC1)c1ccc(-c2cccc(F)c2)nc1` [Example 94, 6-(3-Fluorophenyl)-N-{1-[1-(2-fluorophenyl)-1H-tetrazol-5-yl]piperidin-4-yl}nicotinamide] as the molecule, how does the IC50 read?
**A.** The IC50 was 0.426 nM.

**Q.** For `Cc1ccc(-n2nnnc2N2CCC(NC(=O)c3ccc(-c4cccc(F)c4)nc3)CC2)cc1` [Example 95, 6-(3-Fluorophenyl)-N-{1-[1-(4-methylphenyl)-1H-tetrazol-5-yl]piperidin-4-yl}nicotinamide], which IC50 is on record?
**A.** The IC50 was 0.764 nM.

**Q.** With `COc1ccccc1Cn1nnnc1N1CCC(NC(=O)c2ccc(-c3cccc(F)c3)nc2)CC1` [Example 96, 6-(3-Fluorophenyl)-N-{1-[1-(2-methoxybenzyl)-1H-tetrazol-5-yl]piperidin-4-yl}nicotinamide] as the molecule, how does the IC50 read?
**A.** The IC50 was 1.19 nM.

**Q.** With `CC(C)n1nnnc1N1CCC(NC(=O)c2ccc(-c3cccc(F)c3)nc2)CC1` [Example 97, 6-(3-Fluorophenyl)-N-[1-(1-isopropyl-1H-tetrazol-5-yl)piperidin-4-yl]nicotinamide] as the molecule, how does the IC50 read?
**A.** Its IC50 is 0.319 nM.
